Results from ChEMBL document CHEMBL5113527, “First-in-Class Hydrazide-Based HDAC6 Selective Inhibitor with Potent Oral Anti-Inflammatory Activity by Attenuating NLRP3 Inflammasome Activation” (J Med Chem, 2022).
Calls of active or inactive are those of the source. The calls are words filed in the database; no cut-off is given here.

Experiments:
Histone deacetylase 5 = Histone deacetylase 5 (Homo sapiens, UniProt Q9UQL6); assay: Inhibition of recombinant HDAC5 (unknown origin) using Boc-Lys (trifluoroacetyl) AMC as substrate preincubated for 1 hr followed by substrate addition and measured after 2 hrs by fluorescence based microplate reader analysis
Histone deacetylase 1 = Histone deacetylase 1 (Homo sapiens, UniProt Q13547); assay: Inhibition of recombinant HDAC1 (unknown origin) using Boc-Lys(acetyl)-AMC as substrate preincubated for 1 hr followed by substrate addition and measured after 2 hrs by fluorescence based microplate reader analysis
[1] = Acute toxicity in LPS-induced endotoxic shock C57BL/6 mouse model assessed as effect on body weight at 500 mg/kg, po administered as single dose for 15 days; type: organism-based; conditions: in vivo, 360 h, time 15 day
[2] = Ratio of drug concentration in brain to plasma of CD-1 mouse measured after 4 hrs by LC-MS/MS analysis; type: ADME; conditions: read-out: BPR
[3] = target: T1, Protein deacetylase HDAC6 (Homo sapiens, UniProt Q9UBN7); assay: Inhibition of recombinant HDAC6 (unknown origin) using Boc-Lys(acetyl)-AMC as substrate preincubated for 15 mins followed by substrate addition and measured after 2 hrs by fluorescence based microplate reader analysis
T1 sequence (Q9UBN7 whole entry): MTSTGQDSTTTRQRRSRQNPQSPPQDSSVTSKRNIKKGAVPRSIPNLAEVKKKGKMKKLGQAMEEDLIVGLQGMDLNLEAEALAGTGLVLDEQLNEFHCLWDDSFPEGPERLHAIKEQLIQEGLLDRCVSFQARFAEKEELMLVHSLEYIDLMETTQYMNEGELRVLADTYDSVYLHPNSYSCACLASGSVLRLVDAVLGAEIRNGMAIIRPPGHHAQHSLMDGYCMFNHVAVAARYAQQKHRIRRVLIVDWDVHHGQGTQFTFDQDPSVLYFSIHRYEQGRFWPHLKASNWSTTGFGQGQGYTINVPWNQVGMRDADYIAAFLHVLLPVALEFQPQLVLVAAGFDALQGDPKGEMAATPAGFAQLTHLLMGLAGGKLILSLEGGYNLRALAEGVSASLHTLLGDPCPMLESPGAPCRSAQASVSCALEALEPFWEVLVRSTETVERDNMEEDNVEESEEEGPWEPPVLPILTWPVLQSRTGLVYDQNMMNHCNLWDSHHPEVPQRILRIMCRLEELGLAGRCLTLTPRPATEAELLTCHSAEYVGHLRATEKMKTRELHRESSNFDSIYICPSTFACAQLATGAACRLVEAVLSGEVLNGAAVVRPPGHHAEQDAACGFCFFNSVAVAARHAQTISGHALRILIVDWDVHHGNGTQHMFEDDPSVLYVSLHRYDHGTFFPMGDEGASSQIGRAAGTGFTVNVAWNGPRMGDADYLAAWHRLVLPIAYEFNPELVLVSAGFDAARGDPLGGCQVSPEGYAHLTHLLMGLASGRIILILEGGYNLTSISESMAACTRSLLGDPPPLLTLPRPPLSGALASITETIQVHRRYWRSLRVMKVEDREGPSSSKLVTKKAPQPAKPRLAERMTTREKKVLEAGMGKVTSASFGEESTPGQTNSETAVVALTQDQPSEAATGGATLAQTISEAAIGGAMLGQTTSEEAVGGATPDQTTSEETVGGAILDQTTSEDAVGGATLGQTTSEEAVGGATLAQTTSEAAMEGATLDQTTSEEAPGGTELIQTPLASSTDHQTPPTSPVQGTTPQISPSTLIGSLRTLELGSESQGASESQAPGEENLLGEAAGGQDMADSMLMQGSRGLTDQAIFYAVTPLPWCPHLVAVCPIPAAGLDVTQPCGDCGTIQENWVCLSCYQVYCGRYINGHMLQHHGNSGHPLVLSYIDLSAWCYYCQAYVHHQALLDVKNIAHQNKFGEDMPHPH

[4] = target: T1, Protein deacetylase HDAC6; assay: Binding affinity to recombinant HDAC6 (unknown origin) assessed as inhibition constant using Boc-Lys(acetyl)-AMC as substrate preincubated for 1 hr followed by substrate addition and measured after 2 hrs by fluorescence based microplate reader analysis
[5] = Plasma concentration in CD-1 mouse at 20 mg/kg measured after 4 hrs by LC-MS/MS analysis; type: ADME, organism-based
[6] = AUC(0 to infinity) in CD-1 mouse at 5 mg/kg, iv measured after 0.083 to 24 hrs by LC-MS/MS analysis; type: ADME, organism-based; parameters: dose 5 mg/kg, time upper 24 hrs, time lower 0.083 hrs, route iv; conditions: in vivo
[7] = target: T1, Protein deacetylase HDAC6; assay: Inhibition of recombinant HDAC6 (unknown origin) using Boc-Lys(acetyl)-AMC as substrate preincubated for 120 mins followed by substrate addition and measured after 2 hrs by fluorescence based microplate reader analysis
HEK293 = assay: Cytotoxicity against human HEK293 cells assessed as reduction in cell viability at 100 uM measured after 48 hrs by spectrophotometric analysis; type: toxicity, cell-based; conditions: hek293, 48 h
Mus musculus = assay: Inhibition of LPS-induced endotoxic shock in C57BL/6 mouse model serum assessed as decrease in IL-1beta level at 10 mg/kg, ip pretreated for 1 hr followed by LPS addition measured after 12 hrs; type: functional, organism-based; conditions: time 13.0 hrs
[8] = Ratio of drug concentration in brain to plasma of CD-1 mouse measured after 2 hrs by LC-MS/MS analysis; type: ADME; conditions: read-out: BPR
[9] = Ratio of drug concentration in brain to plasma of CD-1 mouse measured after 0.5 hrs by LC-MS/MS analysis; type: ADME; conditions: read-out: BPR
[10] = Brain concentration in CD-1 mouse at 20 mg/kg measured after 2 hrs by LC-MS/MS analysis; type: ADME, organism-based; conditions: read-out: Ct
Histone deacetylase 2 = Histone deacetylase 2 (Homo sapiens, UniProt Q92769); assay: Binding affinity to recombinant HDAC2 (unknown origin) assessed as inhibition constant using Boc-Lys(acetyl)-AMC as substrate preincubated for 1 hr followed by substrate addition and measured after 2 hrs by fluorescence based microplate reader analysis
[11] = Oral bioavailability in CD-1 mouse at 20 mg/kg measured after 0.083 to 24 hrs by LC-MS/MS analysis; type: ADME, organism-based; conditions: in vivo, time 0.083-24 hrs
Histone deacetylase 3 = Histone deacetylase 3 (Homo sapiens, UniProt O15379); assay: Binding affinity to recombinant HDAC3 (unknown origin) assessed as inhibition constant using Boc-Lys(acetyl)-AMC as substrate preincubated for 1 hr followed by substrate addition and measured after 2 hrs by fluorescence based microplate reader analysis
[12] = Ratio of drug concentration in brain to plasma of CD-1 mouse measured after 1 hrs by LC-MS/MS analysis; type: ADME
[13] = Brain concentration in CD-1 mouse at 20 mg/kg measured after 4 hrs by LC-MS/MS analysis; type: ADME, organism-based; conditions: read-out: Ct
[14] = target: T1, Protein deacetylase HDAC6; assay: Inhibition of recombinant HDAC6 (unknown origin) using Boc-Lys(acetyl)-AMC as substrate preincubated for 0 min followed by substrate addition and measured after 2 hrs by fluorescence based microplate reader analysis
[15] = Plasma concentration in CD-1 mouse at 20 mg/kg measured after 2 hrs by LC-MS/MS analysis; type: ADME, organism-based
[16] = target: T1, Protein deacetylase HDAC6; assay: Inhibition of recombinant HDAC6 (unknown origin) using Boc-Lys(acetyl)-AMC as substrate preincubated for 60 mins followed by substrate addition and measured after 2 hrs by fluorescence based microplate reader analysis

Histone deacetylase 5, sequence (Q9UQL6 whole entry): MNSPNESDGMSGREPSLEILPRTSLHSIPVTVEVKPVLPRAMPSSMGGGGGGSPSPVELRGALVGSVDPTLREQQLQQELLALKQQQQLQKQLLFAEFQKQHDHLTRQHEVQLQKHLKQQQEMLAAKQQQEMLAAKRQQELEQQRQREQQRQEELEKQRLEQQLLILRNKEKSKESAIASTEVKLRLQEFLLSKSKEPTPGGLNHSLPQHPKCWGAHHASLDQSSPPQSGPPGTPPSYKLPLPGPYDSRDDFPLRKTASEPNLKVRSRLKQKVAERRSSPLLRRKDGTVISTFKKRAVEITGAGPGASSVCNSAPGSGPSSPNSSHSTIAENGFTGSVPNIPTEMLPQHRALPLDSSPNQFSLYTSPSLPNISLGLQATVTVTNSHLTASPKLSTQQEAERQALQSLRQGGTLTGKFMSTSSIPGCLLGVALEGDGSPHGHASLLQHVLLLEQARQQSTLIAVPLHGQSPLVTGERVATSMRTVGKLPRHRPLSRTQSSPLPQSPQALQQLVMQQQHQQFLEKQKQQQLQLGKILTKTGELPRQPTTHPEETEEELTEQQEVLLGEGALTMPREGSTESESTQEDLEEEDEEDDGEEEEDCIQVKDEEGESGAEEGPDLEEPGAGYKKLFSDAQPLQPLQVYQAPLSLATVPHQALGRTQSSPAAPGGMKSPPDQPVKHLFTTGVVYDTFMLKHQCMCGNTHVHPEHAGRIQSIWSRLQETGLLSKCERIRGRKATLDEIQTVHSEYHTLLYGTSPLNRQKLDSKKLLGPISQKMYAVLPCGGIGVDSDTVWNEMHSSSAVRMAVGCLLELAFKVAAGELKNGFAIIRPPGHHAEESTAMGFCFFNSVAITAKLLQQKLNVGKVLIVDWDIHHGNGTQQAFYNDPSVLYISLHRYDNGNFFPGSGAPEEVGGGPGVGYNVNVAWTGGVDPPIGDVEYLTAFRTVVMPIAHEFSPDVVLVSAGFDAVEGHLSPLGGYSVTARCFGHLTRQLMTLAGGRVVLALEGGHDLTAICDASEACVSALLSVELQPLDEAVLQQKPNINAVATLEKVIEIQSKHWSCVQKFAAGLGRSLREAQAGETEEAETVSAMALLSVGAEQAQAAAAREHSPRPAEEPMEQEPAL
Histone deacetylase 2, sequence (Q92769 whole entry): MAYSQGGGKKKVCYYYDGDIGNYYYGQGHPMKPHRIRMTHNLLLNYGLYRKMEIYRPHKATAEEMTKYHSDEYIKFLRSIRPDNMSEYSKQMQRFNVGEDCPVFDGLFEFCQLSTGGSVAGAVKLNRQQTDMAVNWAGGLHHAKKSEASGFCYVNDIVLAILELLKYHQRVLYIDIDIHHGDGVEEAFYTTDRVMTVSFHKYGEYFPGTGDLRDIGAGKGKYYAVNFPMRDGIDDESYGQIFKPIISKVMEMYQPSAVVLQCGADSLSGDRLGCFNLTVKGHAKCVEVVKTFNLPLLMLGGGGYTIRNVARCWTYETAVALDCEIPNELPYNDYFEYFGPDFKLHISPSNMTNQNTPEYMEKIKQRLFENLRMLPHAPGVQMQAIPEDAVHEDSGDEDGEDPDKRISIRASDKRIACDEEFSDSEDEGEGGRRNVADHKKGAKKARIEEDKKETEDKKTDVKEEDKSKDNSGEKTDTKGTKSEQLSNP
Histone deacetylase 1, sequence (Q13547 whole entry): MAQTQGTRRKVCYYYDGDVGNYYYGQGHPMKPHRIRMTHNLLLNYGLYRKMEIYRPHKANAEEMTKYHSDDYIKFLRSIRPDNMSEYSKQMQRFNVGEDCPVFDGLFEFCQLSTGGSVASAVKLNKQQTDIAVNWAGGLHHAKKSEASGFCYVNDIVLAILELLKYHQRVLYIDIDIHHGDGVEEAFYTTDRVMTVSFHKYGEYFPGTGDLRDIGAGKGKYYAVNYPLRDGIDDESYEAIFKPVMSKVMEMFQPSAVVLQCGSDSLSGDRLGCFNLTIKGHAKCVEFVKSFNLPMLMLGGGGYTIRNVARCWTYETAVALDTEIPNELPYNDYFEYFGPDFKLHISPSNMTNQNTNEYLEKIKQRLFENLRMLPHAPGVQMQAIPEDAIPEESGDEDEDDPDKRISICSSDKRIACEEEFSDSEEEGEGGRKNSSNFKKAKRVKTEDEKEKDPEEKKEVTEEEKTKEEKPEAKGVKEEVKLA
Histone deacetylase 3, sequence (O15379 whole entry): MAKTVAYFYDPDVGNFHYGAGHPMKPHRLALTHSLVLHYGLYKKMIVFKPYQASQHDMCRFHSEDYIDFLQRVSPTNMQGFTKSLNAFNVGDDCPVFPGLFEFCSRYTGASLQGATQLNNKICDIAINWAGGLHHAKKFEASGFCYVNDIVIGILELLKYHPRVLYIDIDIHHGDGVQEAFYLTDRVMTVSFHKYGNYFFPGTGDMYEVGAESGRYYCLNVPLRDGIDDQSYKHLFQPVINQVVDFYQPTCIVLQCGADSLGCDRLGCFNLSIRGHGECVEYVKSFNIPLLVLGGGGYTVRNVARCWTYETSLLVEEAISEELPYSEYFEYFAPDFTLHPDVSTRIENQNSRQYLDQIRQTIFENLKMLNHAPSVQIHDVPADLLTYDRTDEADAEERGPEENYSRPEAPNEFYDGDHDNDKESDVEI

CCNNC(=O)c1ccc(CN2c3ccccc3C=Cc3ccncc32)cc1
IC50 (Histone deacetylase 5): > 5 µM | IC50 (Histone deacetylase 1): 1.53 µM | Activity [1]: Non-Toxic | Kp at 4 h [2]: 1.51 | IC50 [3]: 0.257 µM | Ki [4]: 0.003 µM | concentration at 4 h [5]: 162 ng/mL | AUC(0-inf) [6]: 2760 ng·h/mL | IC50 [7]: 0.051 µM | Activity (HEK293): Non-Toxic | Activity (Mus musculus): Active | Kp at 2 h [8]: 1.42 | Kp at 0.5 h [9]: 1.45 | concentration at 2 h [10]: 3280 ng/mL | Ki (Histone deacetylase 2): 1.04 µM | bioavailability [11]: 93.4% | Ki (Histone deacetylase 3): 0.43 µM | Kp at 1 h [12]: 1.26 | concentration at 4 h [13]: 245 ng/mL | IC50 [14]: 0.461 µM | concentration at 2 h [15]: 2320 ng/mL | IC50 [16]: 0.0325 µM
